Assay results reported in patent US20130131121A1, “ANTI-VIRAL AGENT” (priority 2007, published 2013).
≈ marks a conversion by molar mass, not a printed value.

What was measured:
[1] = Cytotoxicity (IC50) of components separated from Kumazasa extract; settings: human, MRC-5 human fetal lung fibroblast cells
[2] = test system: human cytomegalovirus (HCMV); test: Suppression of HCMV virus production in infected MRC-5 cells (plaque technique); type: cell-based; settings: for EC50: Human betaherpesvirus 5, MRC5, HCMV proliferation in MRC-5 cells, read-out: EC50 (50% effective concentration); for SI (selection index): IC50/EC50
[3] = test system: influenza type B virus (B/Malaysia/2506/2004); test: Plaque technique in MDCK cells, influenza type B virus; type: cell-based; settings: tricin concentration of 0.3 μg/ml
[4] = test system: influenza type A virus (A/Hiroshima/52/2005, H3N2); test: Plaque technique in MDCK cells, influenza type A virus; type: cell-based; settings: tricin concentration of 0.3 μg/ml
[5] = in vitro; settings: human

**Q.** With Oc1cccnc1 [3-hydroxy pyridine, 3-hydroxypyridine] as the compound, how does the IC50 [1] read?
**A.** 263 µg/mL (≈ 2770 µM)

**Q.** And the EC50 [2]?
**A.** 3.4 µg/mL (≈ 35.8 µM)

**Q.** And the “SI (selection index)” value [2]?
**A.** 77.4

**Q.** With Nc1nc(O)c2ncn(COC(CO)CO)c2n1 [Ganciclovir, reference compound] as the compound, how does the EC50 [2] read?
**A.** 0.3 to 0.8 µg/mL (≈ 1.18 to 3.13 µM)

**Q.** Which IC50 [1] does the source give for COc1cc(-c2cc(=O)c3c(O)cc(O)cc3o2)cc(OC)c1O [Tricin, 5,7,4′-trihydroxy-3′,5′-dimethoxyflavone] here?
**A.** 2050 µg/mL (≈ 6210 µM)

**Q.** What about the “proliferation suppression ratio (pt/pc×100%)” value [3] of the same compound?
**A.** 48%

**Q.** What about the EC50 [2] of the same compound?
**A.** 1.7 µg/mL (≈ 5.15 µM)

**Q.** And the “SI (selection index)” value [2]?
**A.** 1205.8

**Q.** What about the “proliferation of the virus (virus titer)” value ([2]; tricin concentration of 111 μg/ml, FIG. 4) of the same compound?
**A.** virtually completely inhibited

**Q.** What about the “proliferation suppression ratio (pt/pc×100%)” value [4] of the same compound?
**A.** 52%

**Q.** For COc1cc(C=O)ccc1O [Vanillin, vanillin], which IC50 [1] is on record?
**A.** 215 µg/mL (≈ 1410 µM)

**Q.** What about the EC50 [2] of the same compound?
**A.** 48 µg/mL (≈ 315 µM)

**Q.** What about the “SI (selection index)” value [2] of the same compound?
**A.** 4.5

**Q.** For O=C(O)/C=C/c1ccc(O)cc1 [p-coumaric acid, reference compound], which IC50 [1] is on record?
**A.** 187 µg/mL (≈ 1140 µM)

**Q.** What about the EC50 [2] of the same compound?
**A.** 8.2 µg/mL (≈ 50 µM)

**Q.** And the “SI (selection index)” value [2]?
**A.** 22.8

**Q.** Which EC50 [2] does the source give for O=Cc1ccc(O)cc1 [p-hydroxybenzaldehyde] here?
**A.** 12.8 µg/mL (≈ 105 µM)

**Q.** And the “SI (selection index)” value [2]?
**A.** 23.8

**Q.** What about the IC50 [5] of the same compound?
**A.** 305 µg/mL (≈ 2500 µM)
